pIC50: −log10 of the molar value. Several values for one entry are separate records, joined by “and”; a condition that tells them apart may be missing. Equal values may be shown once. Read-outs that look alike come from different tables or passages of the source.
How the values were obtained:
Format in all cases: cell-based, human
[1] = tested on: 5 HMCLs with low HA Score; assay: Growth assay for myeloma cells (Cell Titer Glo, intracellular ATP), HMCLs with low HA Score; details: 4 days culture, read-out: median IC50
Procedure: (§1) Data are mean values plus or minus standard deviation (SD) of 5 experiments determined on sextuplet culture wells.
(§2) HMCLs were cultured for 4 days in 96-well flat-bottom microtiter plates in RPMI 1640 medium, 10% FCS, 2 ng/ml IL-6 culture medium (control), with graded Panobinostat (A), VPA […] or SAHA (C) concentrations. Data are mean values plus or minus standard deviation (SD) of 5 experiments determined on sextuplet culture wells.
(§3) Cell growth was evaluated by quantifying intracellular ATP amount with a Cell Titer Glo Luminescent Assay (Promega, Madison, Wis.) with a Centro LB 960 luminometer (Berthold Technologies, Bad Wildbad, Germany).
(§4) The inventors sought to determine whether HA Score could predict for the sensitivity of 10 HMCLs to HDAC inhibitor.
(§5) The inventors sought to determine whether HA Score could predict for the sensitivity of myeloma cells to clinical grade HDAC inhibitors {Neri, 2012 #3317}.

[2] = tested on: 5 HMCLs with the highest HA Score; assay: Growth assay for myeloma cells (Cell Titer Glo, intracellular ATP), HMCLs with high HA Score; details: 4 days culture, read-out: median IC50
Procedure: as §1, §2, §3, §4, §5

[3] = tested on: primary MMCs of patients with low HA Score; assay: Mononuclear cell culture, CD138+ viable plasma cell count, patients with low HA Score; details: day 4; for Myeloma cell number/culture well: individual patients with low HA Score; for Myeloma cell number/culture well, Mean: mean of 5 patients with low HA Score
Procedure: (§6) At day 4 of culture, the cell count and the viability were determined and the percentage of CD138^+ viable plasma cells was determined by flow cytometry. Black color represents patients with high HA Score (N=8) and white represents patients with low HA Score values (N=5).
(§7) In each culture group, viability and cell counts were assayed and MMCs were stained with an anti-CD138-PE mAb (Immunotech, Marseille, France) as previously described (35).
(§8) The characteristics of patients with MM included in this study are described in Table 3.

[4] = tested on: XG-6; assay: Cell viability by trypan blue exclusion; details: 0.33 μM TSA, 24 h (Day 1), mean ± SD, 3 experiments
Procedure: (§9) The human MM cell lines XG-5, XG-6, XG-7, XG-20 and LP1 were grown in RPMI 1640 supplemented with 10% fetal bovine serum and 2 ng/mL recombinant IL-6. […] Control cells were cultured in the same conditions without TSA.

[5] = tested on: XG-20; assay: Cell viability by trypan blue exclusion; details: 0.33 μM TSA, 24 h (Day 1), mean ± SD, 3 experiments
Procedure: as §9

[6] = tested on: XG-7; assay: Cell viability by trypan blue exclusion; details: 0.33 μM TSA, 24 h (Day 1), mean ± SD, 3 experiments
Procedure: as §9

[7] = tested on: XG-5; assay: Cell viability by trypan blue exclusion; details: 0.33 μM TSA, 24 h (Day 1), mean ± SD, 3 experiments
Procedure: as §9

[8] = tested on: LP1; assay: Cell viability by trypan blue exclusion; details: 0.33 μM TSA, 24 h (Day 1), mean ± SD, 3 experiments
Procedure: as §9

[9] = tested on: Five HMCLs; assay: Cell viability of the five TSA treated HMCLs (summary statement); details: 0.33 μM TSA for 24 h
Procedure: as §9
The prognostic information of HDACi regulated genes was gathered within an histone acetylation score (HA Score), which was the sum of the beta coefficients of the Cox model weighted by ±1 according to the patient MMC signal above or below the probe set maxstat value as described (34).

[10] = tested on: primary MMCs of patients with high HA Score; assay: Mononuclear cell culture, CD138+ viable plasma cell count, patients with high HA Score; details: day 4; for Myeloma cell number/culture well: individual patients with high HA Score; for Myeloma cell number/culture well, Mean: mean of 8 patients with high HA Score
Procedure: as §6, §7, §8

[11] = Homo sapiens, 96 h, IL-6 2 ng/ml

`Cc1[nH]c2ccccc2c1CCNCc1ccc(/C=C/C(=O)NO)cc1` [Panobinostat, panobinostat] was tested, and the pIC50 [1, 11] was 8.50 and the pIC50 [2, 11] was 8.94.
`CC(/C=C/C(=O)NO)=C\[C@@H](C)C(=O)c1ccc(N(C)C)cc1` [TSA, trichostatin A] was tested, and the “Myeloma cell number/culture well” value ([3]; 5.1 nM TSA) was 72200 and 60648 and 14750 and 306768 and 19100, the “Myeloma cell number/culture well, Mean” value ([3]; 5.1 nM TSA) was 94693 and the “Myeloma cell number/culture well” value ([3]; 10.3 nM TSA) was 64998 and 62172 and 18486 and 254478 and 19458. For the same molecule, the “Myeloma cell number/culture well, Mean” value ([3]; 10.3 nM TSA) was 83918, the “Myeloma cell number/culture well” value ([3]; 20.7 nM TSA) was 54912 and 41184 and 14328 and 243978 and 18168 and the “Myeloma cell number/culture well, Mean” value ([3]; 20.7 nM TSA) was 74514. For the same molecule, the “Myeloma cell number/culture well” value ([3]; 41.3 nM TSA) was 33350 and 26100 and 12765 and 235040 and 18876, the “Myeloma cell number/culture well, Mean” value ([3]; 41.3 nM TSA) was 65226 and the “Cell viability (%)” value [4] was 100 ± 1%. For the same molecule, the “Cell viability (%)” value [5] was 100 ± 1%, the “Cell viability (%)” value [6] was 100 ± 0% and the “Cell viability (%)” value [7] was 70 ± 3%. The “Cell viability (%)” value [8] was 100 ± 0%, the “effect on myeloma cell viability” value [9] was “did not affect myeloma cell viability” and the pIC50 ([1]; IL-6 2 ng/ml) was 7.28. The pIC50 ([2]; IL-6 2 ng/ml) was 7.96, the “Myeloma cell number/culture well” value ([10]; 5.1 nM TSA) was 43320 and 115520 and 72200 and 83752 and 19950 and 37544 and 48249 and 78844 and the “Myeloma cell number/culture well, Mean” value ([10]; 5.1 nM TSA) was 62422. The “Myeloma cell number/culture well” value ([10]; 10.3 nM TSA) was 31086 and 45216 and 50868 and 25434 and 12170 and 33912 and 38249 and 41860, the “Myeloma cell number/culture well, Mean” value ([10]; 10.3 nM TSA) was 34849 and the “Myeloma cell number/culture well” value ([10]; 20.7 nM TSA) was 22880 and 20592 (2×) and 38896 and 7650 and 18304 and 29064 and 32752. For the same molecule, the “Myeloma cell number/culture well, Mean” value ([10]; 20.7 nM TSA) was 23841, the “Myeloma cell number/culture well” value ([10]; 41.3 nM TSA) was 7250 (2×) and 29000 and 18850 and 11600 and 1736 and 5238 and 29790 and the “Myeloma cell number/culture well, Mean” value ([10]; 41.3 nM TSA) was 13839.
Molecule `CCCC(CCC)C(=O)O` [VPA, valproic acid] has a pIC50 ([1]; Homo sapiens, 96 h) of 6.37 and a pIC50 ([2]; Homo sapiens, 96 h) of 6.55.
